Test results published in patent US8466678B2, “Method and apparatus for enhanced in vivo MRI imaging” (Battelle Memorial Institute, priority 2009, dated 2013).

Legend:
lungs of live rats = assay: Proton MRI (S0/T2 bivariate analysis) of lungs after intratracheal bleomycin instillation; format: in vivo, Sprague-Dawley rats
Procedure: In these experiments, three groups of Sprague-Dawley rats (n=5) were instilled intratracheally with bleomycin (2.5 U/kg or 3.5 U/kg) in saline or with saline only. Rats were imaged at 2.0 T using a multi-slice Carr-Purcell-Meilboom-Gill (CPMG) sequence with 6 ms echo spacing. Signal intensity (S0) and T2 were calculated on a pixel-by-pixel basis using images collected before dosing and 1, 2, 4, and 7 weeks after. At each time point, data from dosed animals were compared to controls, and bivariate statistical analysis was employed to classify image pixels containing abnormal tissue. At week 7, pulmonary function tests were performed, then all rats were sacrificed, left lungs were formalin fixed and tri-chrome stained for histological analysis of collagen content, and right lungs were used to measure water and hydroxyproline (collagen) content.
Animal handling and treatment procedures followed a protocol approved by the Institutional Animal Care and Use Committee. A total of 18 male Sprague-Dawley rats weighing 196±8 g were used. […]
MRI Analysis. Images were reconstructed using a standard 2D Fourier transform, then they were read into Mathematica 6.0 (Wolfgram Research, Champaign, Ill.) for further analysis. […] The mean background noise was measured from the first image of each stack. […]
Following segmentation, data for each rat at each time point were written to a columnar data file that contained S0, T2, slice number, and the corresponding pixel coordinates. […] A scatter plot of T2 (y-axis) vs. S0 (x-axis) was then generated to show the clustering of the data and the relationship between the measured parameters (for example, see FIG. 2A). Using a Mathematica script and bivariate statistical analysis, an ellipsoid was calculated that encircled ˜95% of the data points that were heretofore defined as “normal” lung with 95% confidence.
Each dosed animal was compared to the control group at the same time point, and data points within the ellipsoid were deleted as shown in FIG. 4B. The percentage of total pixels that were “abnormal” was calculated for each animal at each time point. […]

[1] = Body weight and animal welfare after bleomycin instillation; format: in vivo, Sprague-Dawley rats
Description: Animal handling and treatment procedures followed a protocol approved by the Institutional Animal Care and Use Committee. A total of 18 male Sprague-Dawley rats weighing 196±8 g were used. They were divided into three groups of n=6: control, low-dose (LD), and high-dose (HD). A single animal per dose group died immediately after dosing. Therefore, each group was left with n=5. No additional unanticipated mortality occurred for the duration of the experiment.
In brief, rats were first weighed then injected subcutaneously with 0.02 mL/kg body weight (BW) glycopyrrolate to inhibit oral secretions and facilitate insertion of an endotracheal tube. After 10-15 minutes, animals were anesthetized with 3-4% isoflurane in oxygen-enriched air (30% O2, 70% N2).
Other than the initial weight loss, no other outward signs of distress were observed.

bleomycin sulfate
response of the LD group (lungs of live rats; 2.5 U/kg BW intratracheal (LD), after the first two weeks of the study): very mild response | percentage of "abnormal" pixels vs control rats (lungs of live rats; 2.5 U/kg BW intratracheal (LD), by week 4): essentially indistinguishable from the control rats | response (fraction of "abnormal" pixels) compared with LD rats (lungs of live rats; 3.5 U/kg BW intratracheal (HD), throughout the experiment (7 weeks)): stronger response | breathing under anesthesia ([1]; 3.5 U/kg BW (HD), weeks 1, 2 and 4): struggle with breathing under anesthesia | body weight change ([1]; both dose groups (2.5 and 3.5 U/kg BW), first week): lost a significant amount of weight
